Reference: US20090098195A1 (priority 2004, published 2009)
Where “and” joins values, the source holds several entries; their conditions need not be identical. Identical values can stand only once. Like-named read-outs stand apart in the source and are kept apart here.

Columns and labels:
[1] = type: binding; conditions: QCM; data not shown
[2] = test system: influenza virus A/PR/8/34 (H1N1); type: cell-based; conditions: liposomes containing the peptide; egg PC concentration of 1 mM (peptide concentration: 0.15 mM); vs liposome without peptide
[3] = type: binding; conditions: GM3 monolayer, QCM
[4] = type: binding; conditions: 6′GM3 monolayer, QCM
[5] = type: binding; conditions: LacCer monolayer, QCM
[6] = type: binding; conditions: GalCer monolayer, QCM

Substance	binding to glycosphingolipids [1]	percent inhibition of infection [2] [%]	Kd [3] [µM]	Δmmax (maximum binding amount) [3]	Kd [4] [µM]	Δmmax (maximum binding amount) [4] [ng cm^−2]	Kd [5] [µM]	Δmmax (maximum binding amount) [5] [ng cm^−2]	Δmmax (maximum binding amount) [6] [ng cm^−2]	Kd [6] [µM]
H-AETVESCLAKPHTEN-NH2 [control peptide]	bound to none of the glycosphingolipids									
ARLSPTMVHPRGAQP [A1 peptide, reference compound]		76								
RAVWRHSVATPSHSV [c03-peptide, H-RAVWRHSVATPSHSV-NH2]		94	0.34	11 ng cm^−2 and 11 ± 0.1 ng cm^−2	7 ± 2.2	56 ± 3.1	5.9 ± 1.2	37 ± 1.8	<3	
GWWYKGRARPVSAVA [c01-peptide, H-GWWYKGRARPVSAVA-NH2]		83	1.8	46 ng cm^−2 and 46 ± 2.4 ng cm^−2	4 ± 1.1	93 ± 4.6	4.8 ± 1.6	74 ± 5.2	64 ± 4.5	13 ± 3.3
